Experimental data published in ChEMBL document CHEMBL1201862, “PubChem BioAssay data set” (2004).
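Five compound concentrations were applied to cells in 96-well plates for 48 hours; endpoints were derived by simple linear interpolation of the resulting dose-response curve. GI50 = concentration required for 50% inhibition of growth.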 Activity calls are given as the source filed them. Rule as the data show it: active = GI50 up to about 1.1 µM and inactive = higher.

How the values were obtained:
Assay in all cases: NCI anticancer screen, dose series, 48 h
786-0 = test system: 786-0
A498 = test system: A498
A549 = test system: A549
ACHN = test system: ACHN
BT-549 = test system: BT-549
CAKI-1 = test system: CAKI-1
CCRF-CEM = test system: CCRF-CEM
COLO 205 = test system: COLO 205
DU-145 = test system: DU-145
EKVX = test system: EKVX
HCC 2998 = test system: HCC 2998
HCT-116 = test system: HCT-116
HCT-15 = test system: HCT-15
HOP-62 = test system: HOP-62
HT-29 = test system: HT-29
Hs-578T = test system: Hs-578T
IGROV-1 = test system: IGROV-1
K562 = test system: K562
KM12 = test system: KM12
M14 = test system: M14
MCF7 = test system: MCF7
MDA-MB-231 = test system: MDA-MB-231
MDA-MB-435 = test system: MDA-MB-435
MDA-N = test system: MDA-N
MOLT-4 = test system: MOLT-4
Malme-3M = test system: Malme-3M
NCI-H226 = test system: NCI-H226
NCI-H23 = test system: NCI-H23
NCI-H522 = test system: NCI-H522
NCI/ADR-RES = test system: NCI/ADR-RES
OVCAR-3 = test system: OVCAR-3
OVCAR-4 = test system: OVCAR-4
OVCAR-5 = test system: OVCAR-5
OVCAR-8 = test system: OVCAR-8
PC-3 = test system: PC-3
RPMI-8226 = test system: RPMI-8226
RXF 393 = test system: RXF 393
SF-268 = test system: SF-268
SF-295 = test system: SF-295
SK-MEL-28 = test system: SK-MEL-28
SK-MEL-2 = test system: SK-MEL-2
SK-MEL-5 = test system: SK-MEL-5
SK-OV-3 = test system: SK-OV-3
SN12C = test system: SN12C
SNB-19 = test system: SNB-19
SW-620 = test system: SW-620
T47D = test system: T47D
TK-10 = test system: TK-10
U-251 = test system: U-251
UACC-257 = test system: UACC-257
UACC-62 = test system: UACC-62
UO-31 = test system: UO-31
HL-60 = test system: HL-60
HOP-92 = test system: HOP-92
LOX IMVI = test system: LOX IMVI
NCI-H460 = test system: NCI-H460
SF-539 = test system: SF-539
SNB-75 = test system: SNB-75
SR = test system: SR

For `CC(C)c1cc(C(C)C)c(S(=O)(=O)N/N=C2\CC3CCC2(C)C3(C)C)c(C(C)C)c1` (stereo not given), the GI50 (786-0) was 28.4 µM (inactive), the GI50 (A498) was 0.0222 µM (active) and the GI50 (A549) was 23.6 µM (inactive). The GI50 (ACHN) was 15 µM (inactive), the GI50 (BT-549) was > 100 µM (inactive) and the GI50 (CAKI-1) was 20.2 µM (inactive). For the same compound, the GI50 (CCRF-CEM) was 4.69 µM (inactive), the GI50 (COLO 205) was 12.9 µM (inactive) and the GI50 (DU-145) was 18 µM (inactive). The GI50 (EKVX) was 11 µM (inactive), the GI50 (HCC 2998) was 23.3 µM (inactive) and the GI50 (HCT-116) was 17.8 µM (inactive). For the same compound, the GI50 (HCT-15) was 46 µM, the GI50 (HOP-62) was 74.8 µM (inactive) and the GI50 (HT-29) was 14.1 µM (inactive). For the same compound, the GI50 (Hs-578T) was 29.7 µM (inactive), the GI50 (IGROV-1) was 27.3 µM (inactive) and the GI50 (K562) was 8.53 µM (inactive). The GI50 (KM12) was 36.1 µM (inactive), the GI50 (M14) was 51.6 µM (inactive) and the GI50 (MCF7) was 10 µM (inactive). For the same compound, the GI50 (MDA-MB-231) was 5.74 µM (inactive), the GI50 (MDA-MB-435) was 34.8 µM (inactive) and the GI50 (MDA-N) was 15.1 µM (inactive). For the same compound, the GI50 (MOLT-4) was 6.68 µM (inactive), the GI50 (Malme-3M) was 25.5 µM (inactive) and the GI50 (NCI-H226) was 16.9 µM (inactive). For the same compound, the GI50 (NCI-H23) was 17.4 µM (inactive), the GI50 (NCI-H522) was 5.37 µM (inactive) and the GI50 (NCI/ADR-RES) was 20.8 µM (inactive). For the same compound, the GI50 (OVCAR-3) was 33.7 µM (inactive), the GI50 (OVCAR-4) was 29 µM (inactive) and the GI50 (OVCAR-5) was 48 µM (inactive). For the same compound, the GI50 (OVCAR-8) was > 100 µM (inactive), the GI50 (PC-3) was 18.3 µM (inactive) and the GI50 (RPMI-8226) was 3.08 µM (inactive). For the same compound, the GI50 (RXF 393) was 11.7 µM (inactive), the GI50 (SF-268) was 34.9 µM (inactive) and the GI50 (SF-295) was 10.4 µM (inactive). For the same compound, the GI50 (SK-MEL-28) was 31.8 µM (inactive), the GI50 (SK-MEL-2) was 18.9 µM (inactive) and the GI50 (SK-MEL-5) was 14.5 µM (inactive). For the same compound, the GI50 (SK-OV-3) was 55.3 µM (inactive), the GI50 (SN12C) was 12.4 µM (inactive) and the GI50 (SNB-19) was 27.5 µM (inactive). For the same compound, the GI50 (SW-620) was 57.1 µM (inactive), the GI50 (T47D) was 11.8 µM (inactive) and the GI50 (TK-10) was 38.8 µM (inactive). For the same compound, the GI50 (U-251) was 23.3 µM (inactive), the GI50 (UACC-257) was 4.84 µM (inactive) and the GI50 (UACC-62) was 37.3 µM (inactive). For the same compound, the GI50 (UO-31) was 30.4 µM (inactive).
For `C/C(=N\Nc1ccc([N+](=O)[O-])cc1[N+](=O)[O-])c1sc(-n2nc(-c3ccccc3)cc2-c2ccccc2)nc1C`, the GI50 (786-0) was 36.7 µM (inactive), the GI50 (A498) was 41 µM (inactive) and the GI50 (ACHN) was 16.6 µM (inactive). For the same compound, the GI50 (BT-549) was 36.9 µM (inactive), the GI50 (CAKI-1) was 20 µM (inactive) and the GI50 (CCRF-CEM) was 19.5 µM (inactive). The GI50 (COLO 205) was 24.8 µM (inactive), the GI50 (DU-145) was 35.5 µM (inactive) and the GI50 (EKVX) was 26.5 µM (inactive). The GI50 (HCC 2998) was 32.9 µM (inactive), the GI50 (HCT-116) was 29.4 µM (inactive) and the GI50 (HCT-15) was 38.6 µM. For the same compound, the GI50 (HL-60) was 12.6 µM (inactive), the GI50 (HOP-62) was 70.3 µM (inactive) and the GI50 (HOP-92) was 23.9 µM (inactive). For the same compound, the GI50 (HT-29) was 17 µM (inactive), the GI50 (Hs-578T) was 78.9 µM (inactive) and the GI50 (IGROV-1) was 0.897 µM (active). For the same compound, the GI50 (KM12) was 11.3 µM (inactive), the GI50 (LOX IMVI) was 11.9 µM (inactive) and the GI50 (M14) was 56.4 µM (inactive). For the same compound, the GI50 (MCF7) was 46.5 µM (inactive), the GI50 (MDA-MB-231) was 44.4 µM (inactive) and the GI50 (MDA-MB-435) was 33 µM (inactive). For the same compound, the GI50 (MDA-N) was 46.8 µM (inactive), the GI50 (MOLT-4) was 16.9 µM (inactive) and the GI50 (Malme-3M) was 76.7 µM (inactive). The GI50 (NCI-H226) was 34.1 µM (inactive), the GI50 (NCI-H23) was 32.9 µM (inactive) and the GI50 (NCI-H460) was 30.8 µM (inactive). The GI50 (NCI-H522) was 22 µM (inactive), the GI50 (NCI/ADR-RES) was 21.9 µM (inactive) and the GI50 (OVCAR-3) was 39.4 µM (inactive). The GI50 (OVCAR-4) was 43.9 µM (inactive), the GI50 (OVCAR-5) was > 100 µM (inactive) and the GI50 (OVCAR-8) was 30.5 µM (inactive). For the same compound, the GI50 (RPMI-8226) was 20.9 µM (inactive), the GI50 (SF-268) was 44.2 µM (inactive) and the GI50 (SF-295) was 35.7 µM (inactive). For the same compound, the GI50 (SF-539) was 46.8 µM (inactive), the GI50 (SK-MEL-28) was 90.2 µM (inactive) and the GI50 (SK-MEL-5) was 34.4 µM (inactive). The GI50 (SK-OV-3) was 24.5 µM (inactive), the GI50 (SN12C) was 50.1 µM (inactive) and the GI50 (SNB-19) was 93.5 µM (inactive). For the same compound, the GI50 (SNB-75) was 45.5 µM (inactive), the GI50 (SR) was 18.3 µM (inactive) and the GI50 (SW-620) was 26.3 µM (inactive). For the same compound, the GI50 (T47D) was 13.8 µM (inactive), the GI50 (TK-10) was 27.9 µM (inactive) and the GI50 (U-251) was 42.7 µM (inactive). For the same compound, the GI50 (UACC-257) was 20.8 µM (inactive), the GI50 (UACC-62) was 53.6 µM (inactive) and the GI50 (UO-31) was 19.8 µM (inactive).
`CCOC(=O)C1(C#N)CC1` was tested, and the GI50 (786-0) was > 100 µM (inactive), the GI50 (A549) was > 100 µM (inactive) and the GI50 (ACHN) was > 100 µM (inactive). The GI50 (BT-549) was > 100 µM (inactive), the GI50 (CAKI-1) was > 100 µM (inactive) and the GI50 (CCRF-CEM) was > 100 µM (inactive). The GI50 (COLO 205) was > 100 µM (inactive), the GI50 (DU-145) was > 100 µM (inactive) and the GI50 (EKVX) was > 100 µM (inactive). For the same compound, the GI50 (HCC 2998) was > 100 µM (inactive), the GI50 (HCT-116) was > 100 µM (inactive) and the GI50 (HCT-15) was greater than 100 µM. The GI50 (HL-60) was > 100 µM (inactive), the GI50 (HOP-62) was > 100 µM (inactive) and the GI50 (HT-29) was > 100 µM (inactive). For the same compound, the GI50 (Hs-578T) was > 100 µM (inactive), the GI50 (IGROV-1) was > 100 µM (inactive) and the GI50 (K562) was > 100 µM (inactive). For the same compound, the GI50 (KM12) was > 100 µM (inactive), the GI50 (LOX IMVI) was > 100 µM (inactive) and the GI50 (M14) was > 100 µM (inactive). The GI50 (MCF7) was > 100 µM (inactive), the GI50 (MDA-MB-231) was > 100 µM (inactive) and the GI50 (MDA-N) was > 100 µM (inactive). The GI50 (MOLT-4) was > 100 µM (inactive), the GI50 (Malme-3M) was > 100 µM (inactive) and the GI50 (NCI-H226) was > 100 µM (inactive). The GI50 (NCI-H23) was > 100 µM (inactive), the GI50 (NCI-H460) was > 100 µM (inactive) and the GI50 (NCI-H522) was > 100 µM (inactive). For the same compound, the GI50 (NCI/ADR-RES) was > 100 µM (inactive), the GI50 (OVCAR-4) was > 100 µM (inactive) and the GI50 (OVCAR-5) was > 100 µM (inactive). For the same compound, the GI50 (OVCAR-8) was > 100 µM (inactive), the GI50 (PC-3) was > 100 µM (inactive) and the GI50 (RXF 393) was 7.94 µM (inactive). The GI50 (SF-268) was > 100 µM (inactive), the GI50 (SF-295) was > 100 µM (inactive) and the GI50 (SF-539) was > 100 µM (inactive). For the same compound, the GI50 (SK-MEL-28) was > 100 µM (inactive), the GI50 (SK-MEL-2) was > 100 µM (inactive) and the GI50 (SK-MEL-5) was > 100 µM (inactive). The GI50 (SK-OV-3) was > 100 µM (inactive), the GI50 (SN12C) was > 100 µM (inactive) and the GI50 (SNB-19) was > 100 µM (inactive). The GI50 (SNB-75) was > 100 µM (inactive), the GI50 (SR) was > 100 µM (inactive) and the GI50 (SW-620) was > 100 µM (inactive). The GI50 (T47D) was > 100 µM (inactive), the GI50 (TK-10) was > 100 µM (inactive) and the GI50 (U-251) was > 100 µM (inactive). The GI50 (UACC-257) was > 100 µM (inactive), the GI50 (UACC-62) was > 100 µM (inactive) and the GI50 (UO-31) was > 100 µM (inactive).
